We go through 3 compounds from patent US20230348459A1, “PYRROLIDINE COMPOUND AND USE THEREOF” (SIMCERE PHARMACEUTICAL CO., LTD., priority 2020, published 2023).

A word on the pIC50: it is the IC50 on a negative log10 scale, so that one unit is a factor of ten. As usually defined, the fraction unbound is free concentration divided by total concentration.

Common to all, as to type: in vitro ADME
In one data set the target is CYP2C9 (Homo sapiens (Human), UniProt P11712). Put plainly: Inhibition of CYP2C9 enzymatic activity in human liver microsomes. As to conditions: substrate diclofenac. How it is done:
The inhibition of CYP2C9 and CYP2D6 enzymatic activities by the compounds of the present invention was determined by the following test method.
• 1. Human liver microsomes (Corning 452117) • 2. NADPH (Solarbio 705Y021) • 3. Positive substrates diclofenac (Sigma SLBV3438), dextromethorphan (TRC 3-EDO-175-1) and midazolam (Cerilliant FE01161704) • 4. Positive inhibitors sulfaphenazole (D. Ehrenstorfer GmbH 109012), quinidine (TCI WEODL-RE) and ketoconazole (Sigma 100M1091V) • 5. AB Sciex Triple Quad 5500 liquid chromatography-mass spectrometry
1. Preparation of 100 mM phosphate buffered saline (PBS): 7.098 g of Na2HPO4 was weighed, 500 mL of pure water was added and subjected to ultrasonic dissolution to obtain solution A. 3.400 g of KH2PO4 was weighed, 250 mL of pure water was added and subjected to ultrasonic dissolution to obtain solution B. Solution A was placed on a stirrer and solution B was slowly added until pH reaches 7.4 to prepare 100 mM PBS buffer.
2. Preparation of 10 mM NADPH solution with 100 mM PBS buffer. 10 mM stock solution of compounds of the invention was diluted with DMSO to obtain a 200× concentration of compound working solution (6000, 2000, 600, 200, 60, 20, 0 µM). The stock solution of positive inhibitors was diluted with DMSO to obtain a 200× concentration of positive inhibitor working solution (sulfaphenazole, 1000, 300, 100, 30, 10, 3, 0 µM; quinidine/ketoconazole, 100, 30, 10, 3, 1, 0.3, 0 µM). A 200 × concentration of substrate working solution (120 µM of diclofenac, 400 µM of dextromethorphan, and 200 µM of midazolam) was prepared in water, acetonitrile, or acetonitrile/methanol.
3. 2 µl of 20 mg/ml liver microsome solution, 1 µl of substrate working solution, 1 µl of compound working solution and 176 µl of PBS buffer were taken, mixed uniformly, and pre-incubated in a 37° C. water bath for 15 minutes. […]
The IC50 values of the compounds of the present invention against CYP2C9 and CYP2D6 were calculated by Excel XLfit 5.3.1.3.

Data set [1] is described as follows: Plasma protein binding rate, equilibrium dialysis, monkey plasma. As to conditions: pH 7.4, Cynomolgus monkey plasma, 6 hours dialysis. How it is done:
(§1) The protein binding rate of the compounds of the present invention in the plasma of five species (human, monkey, dog, rat and mouse) was determined by the following test method.
(§2) • 1. Human plasma (BioIVT), beagle dog plasma (BioIVT), SD rat plasma (BioIVT), CD-1 mouse plasma (BioIVT); • 2. 96-well equilibrium dialysis plate (HTDialysis LLC, Gales Ferry, CT, HTD96B), equilibrium dialysis membrane (MWCO 12-14 K, #1101); • 3. Positive control compound warfarin; • 4. ABI QTrap 5500 liquid chromatography-mass spectrometry.
(§3) 1. Preparation of a buffer with a concentration of 100 mM sodium phosphate and 150 mM NaCl: an alkaline solution with a concentration of 14.2 g/L Na2HPO4 and 8.77 g/L NaCl was prepared with ultrapure water, and an acidic solution with a concentration of 12.0 g/L NaH2PO4 and 8.77 g/L NaCl was prepared with ultrapure water. The alkaline solution was titrated with the acidic solution to pH 7.4 to prepare a buffer with a concentration of 100 mM sodium phosphate and 150 mM NaCl.
(§4) 2. Preparation of dialysis membrane: the dialysis membrane was soaked in ultrapure water for 60 minutes to separate the membrane into two pieces, then soaked in 20% ethanol for 20 minutes, and finally soaked in the buffer used for dialysis for 20 minutes.
(§5) 3. Preparation of plasma: the frozen plasma was quickly thawed at room temperature, then the plasma was centrifuged at 3,220 g at 4° C. for 10 min to remove clots, and the supernatant was collected into a new centrifuge tube. The pH of the plasma was measured and recorded, and the plasma with pH of 7-8 was used.
(§6) 3. Preparation of compound-containing plasma samples: 10 mM stock solution of compounds of the present invention or positive control compounds were diluted with DMSO to obtain 200 µM working solution. […]
(§7) The peak areas of the compounds on the buffer side and the plasma side were determined. […]
(§8) All the data was calculated by the Microsoft Excel software. The plasma protein binding rate values of the compounds of the present invention were calculated.
On the technique in general: Equilibrium dialysis compares concentrations on both sides of a semipermeable membrane.

Data set [2] in a line: Plasma protein binding rate, equilibrium dialysis, dog plasma. As to conditions: pH 7.4, Beagle dog plasma, 6 hours dialysis. How it is done:
as §1, §2, §3, §4, §5, §6, §7, §8

pIC50: −log10 of the molar value. Bounds are passed on as bounds.

Sequence of CYP2C9 (P11712 whole entry): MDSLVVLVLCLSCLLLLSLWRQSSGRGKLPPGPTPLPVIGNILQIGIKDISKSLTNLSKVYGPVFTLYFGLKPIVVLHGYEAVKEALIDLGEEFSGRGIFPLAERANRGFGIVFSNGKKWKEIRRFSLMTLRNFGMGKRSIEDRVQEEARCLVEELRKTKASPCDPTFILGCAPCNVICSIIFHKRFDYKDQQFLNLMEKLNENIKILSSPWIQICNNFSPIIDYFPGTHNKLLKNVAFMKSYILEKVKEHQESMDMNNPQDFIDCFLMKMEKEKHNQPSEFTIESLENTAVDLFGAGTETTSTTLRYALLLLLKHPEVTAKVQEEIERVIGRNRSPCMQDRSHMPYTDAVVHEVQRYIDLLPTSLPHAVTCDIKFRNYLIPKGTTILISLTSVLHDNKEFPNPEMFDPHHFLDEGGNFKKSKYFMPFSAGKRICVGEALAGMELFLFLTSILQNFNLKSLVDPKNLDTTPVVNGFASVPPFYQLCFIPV

Compound `C[C@@H]1Cc2c([nH]c3ccccc23)C(c2c(F)cc(N[C@H]3CCN(CCCF)C3)cc2F)N1CC(F)(F)F` (stereo in doubt) [Example 4, (S)-N-(3,5-difluoro-4-((1S,3R)-3-methyl-2-(2,2,2-trifluoroethyl)-2,3,4,9-tetrahydro-1H-pyridino[3,4-b]indol-1-yl)phenyl)-1-(3-fluoropropyl)pyrrolidin-3-amine] showed a pIC50 against CYP2C9 of 4.70. The fraction unbound at 6 h, 1 µM in data set [1] and in data set [2] was 0.002 throughout.

`C[C@@H]1Cc2c([nH]c3ccccc23)C(c2c(F)cc(N[C@H]3CCN(CCCF)C3)cc2F)N1CC(F)(F)CO` (stereo in doubt) [Example 7, 3-((1S,3R)-1-(2,6-difluoro-4-(((S)-1-(3-fluoropropyl)pyrrolidin-3-yl)amino)phenyl)-3-methyl-3,4-dihydro-1H-pyridino [3,4-b]indole-2(9H)-yl)-2,2-difluoropropane-1-ol]: the negative-log IC50 (pIC50) at CYP2C9 was 5.10. Also, the fraction unbound at 6 h, 1 µM in data set [1] was 0.023; in data set [2], 0.012.

As for `C[C@@H]1Cc2c([nH]c3ccccc23)[C@@H](c2ccc(N[C@H]3CCN(CCCF)C3)cn2)N1CC(F)(F)F` [Example 3, N-((S)-1-(3-fluoropropyl)pyrrolidin-3-yl)-6-((1S,3R)-3-methyl-2-(2,2,2-trifluoroethyl)-2,3,4,9-tetrahydro-1H-pyridino[3,4-b]indol-1-yl)pyridine-3-amine], the pIC50 against CYP2C9 was < 4.52. Moreover, the fraction unbound at 6 h, 1 µM in data set [1] was 0.022; in data set [2], 0.013.
